One series deals with T1, human mGluR2 receptor (Homo sapiens, UniProt Q14416).
T1 construct: expressed in transfected cells; host or cells: CHO cells (membrane preparation)
The series is described as follows: [35S]GTPγS binding assay, mGluR2 positive allosteric modulation (GTPγS-PAM). The conditions noted are these: membranes from CHO cells transfected with human mGluR2; in presence of glutamate at EC25 concentration; averages of duplicate values of 11-concentration response curves; read-out: GTPgS - hR2 PAM pEC50 (converted). In kind it is biochemical. An excerpt:
The compounds provided in the present invention are positive allosteric modulators of mGluR2. These compounds appear to potentiate glutamate responses by binding to an allosteric site other than the glutamate binding site. The response of mGluR2 to a concentration of glutamate is increased when compounds of formula (I) are present. Compounds of formula (I) are expected to have their effect substantially at mGluR2 by virtue of their ability to enhance the function of the receptor. The behaviour of positive allosteric modulators tested at mGluR2 using the [^35S]GTPγS binding assay method described below and which is suitable for the identification of such compounds, and more particularly the compounds according to formula (I), are shown in Table 3.
[^35S]GTPγS Binding Assay
The [^35S]GTPγS binding assay is a functional membrane-based assay used to study G-protein coupled receptor (GPCR) function whereby incorporation of a non-hydrolysable form of GTP, [^35S]GTPγS (guanosine 5′-triphosphate, labelled with […] ^35S), is measured. The G-protein […] subunit catalyzes the exchange of guanosine 5′-diphosphate (GDP) by guanosine triphosphate (GTP) and on activation of the GPCR by an agonist, [^35S]GTPγS, becomes incorporated and cannot be cleaved to continue the exchange cycle (Harper (1998) Current Protocols in Pharmacology 2.6.1-10, John Wiley & Sons, Inc.). […] Here we describe the use of the [^35S]GTPγS binding assay using membranes from cells transfected with the human mGluR2 receptor and adapted from Schaffhauser et al ((2003) Molecular Pharmacology 4:798-810) for the detection of the positive allosteric modulation (PAM) properties of the compounds of this invention.
CHO-cells were cultured to pre-confluence and stimulated with 5 mM butyrate for 24 hours, prior to washing in PBS, and then collection by scraping in homogenisation buffer (50 mM Tris-HCl buffer, pH 7.4, 4° C.). Cell lysates were homogenized briefly (15s) using an ultra-turrax homogenizer. The homogenate was centrifuged at 23 500×g for 10 minutes and the supernatant discarded. The pellet was resuspended in 5 mM Tris-HCl, pH 7.4 and centrifuged again (30 000×g, 20 min, 4° C.). The final pellet was resuspended in 50 mM HEPES, pH 7.4 and stored at −80° C. in appropriate aliquots before use. Protein concentration was determined by the Bradford method (Bio-Rad, USA) with bovine serum albumin as standard.
Measurement of mGluR2 positive allosteric modulatory activity of test compounds in membranes containing human mGluR2 was performed using frozen membranes that were thawed and briefly homogenised prior to pre-incubation in 96-well microplates (15 μg/assay well, 30 minutes, 30° C.) in assay buffer (50 mM HEPES pH 7.4, 100 mM NaCl, 3 mM MgCl2, 50 μM GDP, 10 μg/ml saponin,) with increasing concentrations of positive allosteric modulator (from 0.3 nM to 50 μM) and either a minimal pre-determined concentration of glutamate (PAM assay), or no added glutamate. For the PAM assay, membranes were pre-incubated with glutamate at EC25 concentration, i.e. a concentration that gives 25% of the maximal response glutamate, and is in accordance to published data (Pin et al. (1999) Eur. J. Pharmacol. 375:277-294). After addition of [^35S]GTPγS (0.1 nM, f.c.) to achieve a total reaction volume of 200 μl, microplates were shaken briefly and further incubated to allow [^35S]GTPγS incorporation on activation (30 minutes, 30° C.). The reaction was stopped by rapid vacuum filtration over glass-fibre filter plates (Unifilter 96-well GF/B filter plates, Perkin-Elmer, Downers Grove, USA) microplate using a 96-well plate cell harvester (Filtermate, Perkin-Elmer, USA), and then by washing three times with 300 μl of ice-cold wash buffer (Na2PO4.2H2O 10 mM, NaH2PO4.H2O 10 mM, pH=7.4). […]
(Binding of GTPγS marks nucleotide exchange on a G protein.)

T1 sequence (Q14416 19-872): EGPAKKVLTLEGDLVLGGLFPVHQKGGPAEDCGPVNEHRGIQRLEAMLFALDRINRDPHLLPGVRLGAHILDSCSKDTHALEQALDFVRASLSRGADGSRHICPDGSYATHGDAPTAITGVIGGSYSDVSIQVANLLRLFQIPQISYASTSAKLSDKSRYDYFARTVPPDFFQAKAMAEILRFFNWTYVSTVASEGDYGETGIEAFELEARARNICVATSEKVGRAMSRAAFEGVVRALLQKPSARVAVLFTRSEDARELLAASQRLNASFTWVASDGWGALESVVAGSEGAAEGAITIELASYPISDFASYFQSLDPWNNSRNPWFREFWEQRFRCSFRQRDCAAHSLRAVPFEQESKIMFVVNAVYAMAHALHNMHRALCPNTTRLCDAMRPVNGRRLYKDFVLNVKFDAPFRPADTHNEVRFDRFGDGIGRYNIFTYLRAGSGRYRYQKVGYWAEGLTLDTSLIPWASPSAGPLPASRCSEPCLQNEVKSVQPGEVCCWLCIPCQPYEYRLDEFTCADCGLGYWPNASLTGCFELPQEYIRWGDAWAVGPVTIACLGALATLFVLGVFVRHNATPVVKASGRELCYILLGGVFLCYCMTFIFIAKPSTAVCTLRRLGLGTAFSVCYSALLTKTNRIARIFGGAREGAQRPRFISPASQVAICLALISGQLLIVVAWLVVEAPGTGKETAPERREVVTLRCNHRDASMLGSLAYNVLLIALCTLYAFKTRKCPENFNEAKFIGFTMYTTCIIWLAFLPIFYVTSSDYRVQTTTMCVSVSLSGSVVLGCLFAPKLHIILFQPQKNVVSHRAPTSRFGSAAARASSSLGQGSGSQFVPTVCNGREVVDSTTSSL

In turn, `N#Cc1c(-c2ccc(NC3CCOCC3)c(F)c2)ccn(CC2CC2)c1=O` [Compound 1, 1-Cyclopropylmethyl-4-[3-fluoro-4-(tetrahydro-pyran-4-ylamino)-phenyl]-2-oxo-1,2-dihydro-pyridine-3-carbonitrile] displayed a melting point of 249.5 °C. The EC50 at human mGluR2 receptor is around 1000 nM.
In the case of `N#Cc1c(-c2ccc(NC3CCOCC3)c(Cl)c2)ccn(CC2CC2)c1=O` [Compound 2, 1-Cyclopropylmethyl-4-[3-chloro-4-(tetrahydro-pyran-4-ylamino)-phenyl]-2-oxo-1,2-dihydro-pyridine-3-carbonitrile], the EC50 on human mGluR2 receptor is 676 nM.
Same read-out and setting: the value for `N#Cc1c(-c2ccc(NC3CCOCC3)c(C(F)(F)F)c2)ccn(CC2CC2)c1=O` [Compound 3, 1-Cyclopropylmethyl-2-oxo-4-[4-(tetrahydro-pyran-4-ylamino)-3-trifluoromethyl-phenyl]-1,2-dihydro-pyridine-3-carbonitrile] was 1230 nM; that for `N#Cc1c(-c2ccc(OC3CCOCC3)c(Cl)c2)ccn(CCC2CC2)c1=O` [Compound 4, 4-[3-Chloro-4-(tetrahydro-pyran-4-yloxy)-phenyl]-1-(2-cyclopropyl-ethyl)-2-oxo-1,2-dihydro-pyridine-3-carbonitrile] was 282 nM.
On to `CC(C)CCn1ccc(-c2ccc(OC3CCOCC3)c(Cl)c2)c(C#N)c1=O` [Compound 5], for which, on human mGluR2 receptor, the EC50 is 162 nM.
The compound `N#Cc1c(-c2ccc(NC3CCOCC3)c(Cl)c2)ccn(CCC2CC2)c1=O` [Compound 6] showed a melting point above 300 °C. For the same compound, the EC50 at human mGluR2 receptor was 219 nM.
Take `N#Cc1c(-c2ccc(NC3CCOCC3)c(C(F)(F)F)c2)ccn(CCC2CC2)c1=O` [Compound 7]: the EC50 on human mGluR2 receptor is 437 nM.
In turn, `CCCCn1ccc(-c2ccc(NC3CCOCC3)cc2)c(C#N)c1=O` [Compound 8] had a melting point of 195 °C. Further, the EC50 at human mGluR2 receptor is 2510 nM.
Taken in the same sequence, the figures for `CCCCn1ccc(-c2ccc(OC3CCOCC3)cc2F)c(C#N)c1=O` [Compound 9] were 136 °C and 631 nM.
`CC(C)CCn1ccc(-c2ccc(NC3CCOCC3)cc2F)c(C#N)c1=O` [Compound 10]: the EC50 at human mGluR2 receptor was 1580 nM.
Same read-out and setting: the result for `CC(C)CCn1ccc(-c2ccc(NC3CCOCC3)c(F)c2)c(C#N)c1=O` [Compound 11] reads 398 nM; that for `CC(C)CCn1ccc(-c2ccc(NC3CCOCC3)c(Cl)c2)c(C#N)c1=O` [Compound 12], 316 nM.

In general, melting point refers to the temperature of the solid-liquid transition.

The values are drawn from patent publication US8906939B2, “3-cyano-4-(4-tetrahydropyran-phenyl)-pyridin-2-one derivatives” (Janssen Pharmaceuticals, Inc., priority 2007, dated 2014).
